# US11051515B2, “3-acyl-benzamides and their use as herbicides” (Bayer Aktiengesellschaft, priority 2017, dated 2021)
# Tests used:
# SETVI = assay: Pre-emergence action against SETVI; type: in vivo, Setaria viridis; conditions: Setaria viridis, 504 h; pre-emergence, dosage 320 g/ha, scored visually after 3 weeks vs untreated controls; read-out: SETVI (Table B8, pre-emergence herbicidal activity)
# In short: (§1)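 Seeds sown in sandy loam in wood-fiber pots and covered with soil. Greenhouse growth; visual damage scored after 3 weeks versus untreated controls (100% = dead, 0% = like control).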
# HORMU [1] = assay: Post-emergence action against HORMU; type: in vivo, Hordeum murinum; conditions: dosage 80 g/ha
# In short: (§2)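 Post-emergence foliar spray on greenhouse plants at the one-leaf stage, using wettable-powder or emulsion-concentrate formulations in water (600 to […], plus 0.2% wetting agent). Damage scored by eye roughly 3 weeks later against untreated plants: 0% = like control, 100% = dead.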
# LOLRI [2] = assay: Post-emergence action against LOLRI; type: in vivo, Lolium rigidum; conditions: Lolium rigidum, 504 h, dosage 80 g/ha, visual assessment about 3 weeks after treatment vs untreated controls, read-out: Post-emergence action against LOLRI (herbicidal action in percent)
# In short: as §2
# CYPES = assay: Pre-emergence action against CYPES; type: in vivo, Cyperus esculentus; conditions: Cyperus esculentus, 504 h; pre-emergence, dosage 320 g/ha, scored visually after 3 weeks vs untreated controls; read-out: Pre-emergence action against CYPES (herbicidal activity)
# In short: as §1
# ECHCG = assay: Post-emergence action against ECHCG; type: in vivo, Echinochloa crus-galli; conditions: Echinochloa crus-galli, 504 h; post-emergence, dosage 80 g/ha, visual assessment about 3 weeks after treatment vs untreated controls; read-out: Post-emergence action against ECHCG (herbicidal action in percent)
# In short: as §2
# HORMU [3] = assay: Pre-emergence action against HORMU; type: in vivo, Hordeum murinum; conditions: Hordeum murinum, 504 h, Dosage 320 g/ha
# In short: as §1
# PHBPU [4] = assay: Pre-emergence action against PHBPU; type: in vivo, Pharbitis purpurea; conditions: Ipomoea purpurea, 504 h; Dosage 320 g/ha, pre-emergence
# In short: as §1
# ALOMY = assay: Pre-emergence action against ALOMY; type: in vivo, Alopecurus myosuroides; conditions: Alopecurus myosuroides, 504 h; dosage 320 g/ha; pre-emergence; scored visually after 3 weeks vs untreated controls; 100% = plants have died, 0% = like control plants; read-out: Pre-emergence action against ALOMY (herbicidal activity in percent)
# In short: as §1
# PHBPU [5] = assay: Post-emergence action against PHBPU; type: in vivo, Pharbitis purpurea; conditions: Ipomoea purpurea, 504 h; post-emergence, dosage 80 g/ha
# In short: as §2
# LOLRI [6] = assay: Pre-emergence action against LOLRI; type: in vivo, Lolium rigidum; conditions: Lolium rigidum, 504 h, dosage 320 g/ha, scored visually after 3 weeks vs untreated controls, read-out: Pre-emergence action against LOLRI (herbicidal activity)
# In short: as §1
# MATIN = assay: Post-emergence action against MATIN; type: in vivo, Matricaria inodora; conditions: Tripleurospermum inodorum, 504 h; post-emergence, dosage 80 g/ha, visual assessment about 3 weeks after treatment vs untreated controls; read-out: Post-emergence action against MATIN (herbicidal action in percent)
# In short: as §2
# DIGSA [7] = assay: Post-emergence action against DIGSA; type: in vivo, Digitaria sanguinalis; conditions: dosage 80 g/ha, visual assessment about 3 weeks after treatment vs untreated controls
# In short: as §2
# DIGSA [8] = assay: Pre-emergence action against DIGSA; type: in vivo, Digitaria sanguinalis; conditions: dosage 320 g/ha, scored visually after 3 weeks vs untreated controls
# In short: as §1
Structure (SMILES),pest or weed control at 320 g/ha (SETVI),Post-emergence action against HORMU (HORMU [1]),pest or weed control at 80 g/ha (LOLRI [2]),pest or weed control at 320 g/ha (CYPES),pest or weed control at 80 g/ha (ECHCG),pest or weed control at 320 g/ha (HORMU [3]),pest or weed control at 320 g/ha (PHBPU [4]),pest or weed control at 320 g/ha (ALOMY),pest or weed control at 80 g/ha (PHBPU [5]),pest or weed control at 320 g/ha (LOLRI [6]),pest or weed control at 80 g/ha (MATIN),Post-emergence action against DIGSA (herbicidal action in percent) (DIGSA [7]),Pre-emergence action against DIGSA (herbicidal activity) (DIGSA [8])
Cn1nnnc1NC(=O)c1ccc(C(F)F)c(C(=O)C2CC2)c1Cl [1-168],100%,100,100%,90%,100%,100%,100%,100%,100%,100%,100%,–,–
CC(=O)c1c(I)ccc(C(=O)Nc2nnnn2C)c1Cl [1-192],100%,100,100%,90%,100%,100%,100%,100%,80%,100%,100%,–,–
Cn1nnnc1NC(=O)c1ccc(C(F)(F)F)c(C(=O)C2CC2)c1C1CC1 [1-233],100%,80,90%,–,100%,100%,100%,100%,100%,100%,90%,100%,100%
"CCn1nnnc1NC(=O)c1ccc(C(F)(F)F)c(C(=O)C2CC2)c1C [2-18, 3-(cyclopropylcarbonyl)-N-(1-ethyl-1H-tetrazol-5-yl)-2-methyl-4-(trifluoromethyl)benzamide]",100%,100,100%,100%,100%,100%,90%,100%,100%,100%,100%,–,–
